According to patent US10030016B2 (Sunesis Pharmaceuticals, Inc., priority 2009, dated 2018):
pEC50: −log10 of the molar value. Where a name gives a salt, the structure may show the parent alone.

Test system: phospho-akt (Thr308) in PC-3 cells
Test: Inhibition of phospho-akt (Thr308) in PC-3 cells, MSD phospho-akt 308 ELISA kit
Format: cell-based
Details: Homo sapiens; inhibition of P308 Akt in PC-3 cells using MSD, 2 hours, no serum; read-out: EC50
Description: PC-3 cells were harvested by trypsin and counted. Cells were plated in coated 96-well flat bottom plates (plate 15,000 cells/well in 100 ul growth media (10% FBS, 1× pen-strep) an place in an incubator overnight.
Subject inhibitors were stocked at 50 mM, then diluted to 30 mM (4.8 μl cpd plus […] DMSO) in 100% DMSO. Three-fold dilutions were performed from 30 mM stock. (4 μl into 8 ul 100% DMSO). Aliquots of 1.0 μl of inhibitor solution were transferred into SF Medium (using deep well block).
Control wells were prepared as follows. For DMSO high controls, 1.0 μl of 100% DMSO was added into 1.0 ml SF. For low controls for PC-3 cells, 5 μM of Wortmannin (10 μl of 1 mM Wortmannin stock was added into 2 ml SF Medium. The supernatant media was removed and the plate was blotted. 100 μl of controls/media or compound/media were added to cells and placed in incubator for 2 hours. The supernatant media was removed and the plate was blotted. 55 μl of the MSD complete lysis buffer was added (10 mls Tris Lysis buffer, 200 ul protease inhibitor, 100 ul phosphatase inhibitor 1, and 100 ul phosphatase inhibitor II). The plate was placed on a plate shaker for 60 mins at 4 deg.
MSD plates were blocked for 1 hour by adding 150 μl of Blocking Solution (3% BSA) to each well. The MSD plates were washed 4× with TBST, and 50 μl lysates were transferred to MSD plate and place on plate shaker shake at 4 degrees O/N, light shaking (speed 3.5). The plate was washed 4× with TBST.
25 μl of Ab detection solution was added to each well. The plate was sealed and incubated 1 hr RT, light shaking (speed 3.5). The plate was washed 4 times with TBST. 150 μl of Read Buffer was added (5 mls 4×MSD Read Buffer+15 mls water). Finally the plate was read immediately on the MSD plate reader.

pEC50	SMILES
> 6.00	C[C@H](NC(=O)c1nc(C#N)cnc1NCC#Cc1ccc2nc(N)ncc2c1)c1ccc(F)c(F)c1 [Example 258, (S)-3-(3-(2-aminoquinazolin-6-yl)prop-2-ynylamino)-6-cyano-N-(1-(3,4-difluorophenyl)ethyl) pyrazine-2-carboxamide]
> 6.00	C[C@H](NC(=O)c1nc(C#N)cnc1N[C@H](C)c1ccc(-c2cnc3[nH]nc(N)c3c2)nc1)c1ccc(F)c(F)c1 [Example 415, 3-{(R)-1-[6-(3-Amino-1H-pyrazolo[3,4-b]pyridin-5-yl)-pyridin-3-yl]-ethylamino}-6-cyano-pyrazine-2-carboxylic acid [(S)-1-(3,4-difluoro-phenyl)-ethyl]-amide]
> 6.00	C[C@H](NC(=O)c1nc(C#N)cnc1NCc1ccc(-c2cnc(N)c(CO)n2)cc1)c1ccc(F)c(F)c1 [Example 241, 3-[4-(5-Amino-6-hydroxy-methyl-pyrazin-2-yl)-benzylamino]-6-cyano-pyrazine-2-carboxylic acid [(S)-1-(3,4-difluoro-phenyl)-ethyl]-amide]
> 6.00	C[C@H](NC(=O)c1cc(C#N)cnc1NCc1ccc(-c2cnc3[nH]c(=O)n(C)c3c2)cc1)c1ccc(F)cc1 [Example 140, (S)-5-cyano-N-(1-(4-fluorophenyl)ethyl)-2-(4-(1-methyl-2-oxo-2,3-dihydro-1H-imidazo [4,5-b]pyridin-6-yl)benzylamino)nicotinamide]
> 6.00	C[C@H](NC(=O)c1cc(C#N)cnc1NCc1ccc(-c2cnc3[nH]nc(N)c3c2)cc1F)c1ccc(F)cc1 [Example 407, 2-[4-(3-Amino-1H-pyrazolo [3,4-b]pyridin-5-yl)-2-fluoro-benzylamino]-5-cyano-N-[(S)-1-(4-fluoro-phenyl)-ethyl]-nicotinamide]
> 6.00	C[C@H](NC(=O)c1nc(C(F)(F)F)cnc1NCc1ccc(-c2cnc3[nH]nc(N)c3c2)cc1)c1ccc(F)c(F)c1 [Example 428, (S)-3-(4-(3-amino-1H-pyrazolo[3,4-b]pyridin-5-yl)benzylamino)-N-(1-(3,4-difluorophenyl)ethyl)-6-(trifluoromethyl) pyrazine-2-carboxamide]
> 6.00	Nc1ncc(-c2ccc(CNc3ncc(C(F)(F)F)cc3C(=O)Nc3ccc(F)cc3)cc2)nc1CO [Example 242, 2-[4-(5-Amino-6-hydroxy-methyl-pyrazin-2-yl)-benzylamino]-N-(4-fluoro-phenyl)-5-trifluoromethyl-nicotinamide]
> 6.00	C[C@H](NC(=O)c1cc(C#N)cnc1N[C@H](C)c1ccc(-c2cnc3[nH]nc(N)c3c2)nc1)c1ccc(F)cc1 [Example 416, 2-{(R)-1-[6-(3-Amino-1H-pyrazolo[3,4-b]pyridin-5-yl)-pyridin-3-yl]-ethylamino}-5-cyano-N-[(S)-1-(4-fluoro-phenyl)-ethyl]-nicotinamide]
> 6.00	C[C@H](NC(=O)c1cc(C#N)cnc1NCc1ccc(-c2cnc3[nH]c(=O)[nH]c3c2)c(F)c1)c1ccc(F)cc1 [Example 127, (S)-5-cyano-2-(3-fluoro-4-(2-oxo-2,3-dihydro-1H-imidazo[4,5-b]pyridin-6-yl)benzyl-amino)-N-(1-(4-fluorophenyl)ethyl) nicotinamide]
> 6.00	N#Cc1cnc(NCc2ccc(-c3cnc4[nH]ncc4c3)cc2)c(C(=O)NCc2ccc(F)c(F)c2)c1 [Example 396, 5-Cyano-N-(3,4-difluoro-benzyl)-2-[4-(1H-pyrazolo[3,4-b]pyridin-5-yl)-benzylamino]-nicotinamide]
> 6.00	C[C@H](NC(=O)c1cc(C#N)cnc1NCC#Cc1ccc2nc(N)ncc2c1)c1ccc(F)cc1 [Example 257, (S)-2-(3-(2-aminoquinazolin-6-yl)prop-2-ynylamino)-5-cyano-N-(1-(4-fluorophenyl)ethyl)nicotinamide]
< 5.00	Cc1nc(N)cnc1-c1ccc(CNc2ncc(C#N)cc2C(=O)N[C@@H](C)c2ccc(F)cc2)cc1 [Example 107, (S)-2-(4-(5-amino-3-methylpyrazin-2-yl)benzylamino)-5-cyano-N-(1-(4-fluorophenyl)ethyl)nicotinamide]
5.00 to 6.00	N#Cc1cc(F)ccc1NC(=O)c1cc(C(F)(F)F)cnc1NCc1ccc(-c2cnc3[nH]nc(N)c3c2)cc1 [Example 418, 2-(4-(3-amino-1H-pyrazolo [3,4-b]pyridin-5-yl)benzylamino)-N-(2-cyano-4-fluorophenyl)-5-(trifluoromethyl)nicotinamide]
5.00 to 6.00	C[C@H](NC(=O)c1nc(C(F)(F)F)cnc1N[C@H](C)c1ccc(-c2cnc3[nH]nc(N)c3c2)cc1)c1ccc(F)c(F)c1 [Example 427, 3-((R)-1-(4-(3-amino-1H-pyrazolo[3,4-b]pyridin-5-yl)phenyl)ethylamino)-N-((S)-1-(3,4-difluorophenyl)ethyl)-6-(trifluoromethyl) pyrazine-2-carboxamide]
5.00 to 6.00	C[C@H](NC(=O)c1cc(C#N)cnc1NCc1ccc(-c2cnc3[nH]nc(N)c3c2)cc1Cl)c1ccc(F)cc1 [Example 406, 2-[4-(3-Amino-1H-pyrazolo [3,4-b]pyridin-5-yl)-2-chloro-benzylamino]-5-cyano-N-[(S)-1-(4-fluoro-phenyl)-ethyl]-nicotinamide]

Same assay, conditions: Homo sapiens; inhibition of P308 Akt in PC-3 cells, 2 hours, no serum, MSD; read-out: EC50

pEC50	SMILES
< 5.00	Cc1ccc(NC(=O)c2cccnc2NCc2ccc(-c3ccc4ncnc(N)c4c3)s2)cc1F [Example 3.50, 2-({[5-(4-aminoquinazolin-6-yl)thiophen-2-yl]methyl}amino)-N-(3-fluoro-4-methylphenyl) pyridine-3-carboxamide (TFA salt)]
5.00 to 6.00	C[C@H](NC(=O)c1cccnc1NCc1ccc(-c2ccc3ncnc(NCCO)c3c2)s1)c1ccc(F)cc1 [Example 2.14, (S)-N-(1-(4-fluorophenyl)ethyl)-2-(((5-(4-(2-hydroxyethylamino)quinazolin-6-yl)thiophen-2-yl)methyl)amino)nicotinamide]
< 5.00	Nc1ncnc2ccc(-c3ccc(CNc4ncc(Br)cc4S(=O)(=O)NCc4ccc(F)c(F)c4)s3)cc12 [Example 20.1, 2-(((5-(4-aminoquinazolin-6-yl)thiophen-2-yl)methyl)amino)-5-bromo-N-(3,4-difluorobenzyl)pyridine-3-sulfonamide]
5.00 to 6.00	COCCNC(=O)c1cccnc1NCc1ccc(-c2ccc3ncnc(N)c3c2)s1 [Example 3.35, 2-({[5-(4-aminoquinazolin-6-yl)thiophen-2-yl]methyl}amino)-N-(2-methoxyethyl)pyridine-3-carboxamide (TFA salt)]
5.00 to 6.00	Nc1ncnc2ccc(-c3ccc(CNc4ncccc4C(=O)NCc4cncc(F)c4)s3)cc12 [Example 3.65, 2-({[5-(4-aminoquinazolin-6-yl)thiophen-2-yl]methyl}amino)-N-[(5-fluoropyridin-3-yl)methyl] pyridine-3-carboxamide (TFA salt)]
< 5.00	C[C@H](NC(=O)c1cccnc1NCc1ccc(-c2ccc3nc(N)sc3c2)s1)c1ccc(F)cc1 [Example 2.22, (S)-2-(((5-(2-aminobenzo[d]thiazol-6-yl)thiophen-2-yl)methyl)amino)-N-(1-(4-fluorophenyl)ethyl) nicotinamide]
> 6.00	CCc1cnc(NCc2ccc(-c3ccc4ncnc(N)c4c3)s2)c(C(=O)NCc2ccc(F)c(F)c2)c1 [Ex. 8.11, 2-({[5-(4-aminoquinazolin-6-yl)thiophen-2-yl]methyl}amino)-N-(3,4-difluorobenzyl)-5-ethylpyridine-3-carboxamide]
< 5.00	C[C@H](NC(=O)c1cccnc1NCc1ccc(-c2cc3c(cn2)ncn3C)s1)c1ccc(F)cc1 [Example 2.6, (S)-N-(1-(4-fluorophenyl)ethyl)-2-(((5-(1-methyl-1H-imidazo [4,5-c]pyridin-6-yl)thiophen-2-yl)methyl)amino)nicotinamide]
